These results are taken from patent US20200253922A1, “METHODS FOR NON-[…] ADMINISTRATION OF CANNABINOIDS USING SOFT MIST […]” (Molecular Infusions, LLC, priority 2019, published 2020).

Broadly, the pKa is the pH at which an ionisable group is half protonated.

The nature of data set [1]: Solubility of Δ9-THC and CBD in a solution of ethanol and saline at room temperature. The procedure: FIG. 5 is a photograph of 2% w/w Δ9-THC and 2% w/w CBD in solutions of 10%, 20%, 30%, 40% and 50% (w/w) saline in ethanol. Δ9-THC and CBD were soluble in solutions of up to 30% and 40% (w/w) saline, respectively.
As shown in FIG. 5 the solubility of Δ9-THC and CBD in a solution of ethanol and saline was investigated. […] A 2% w/w solution of CBD was prepared at room temperature in solutions of 10%, 20%, 30%, 40%, or 50% (w/w) saline in ethanol. 2% w/w CBD was soluble at room temperature in ethanol solutions of up to 40% saline. In a separate experiment, the absolute solubility of Δ9-THC in ethanol solutions containing 30%w/w saline was determined to be ˜8%w/w (data not shown).

Data set [2] in a line: Terpene solubility assessment in base formulation of 10% Saline, 20% Water, 70% Ethanol. As to conditions: for Visual Observation: mixed overnight at room temperature. Type of data set: physicochemical. The procedure:
The base formulation was prepared in bulk and 15 g aliquots were transferred to 22 ml scintillation vials. Pure, botanically derived terpenes were purchased from commercial sources.

The conditions of data set [3]: acidic form; cited from earlier work.
For data set [4], the system named is patients. Conditions: aerosol formulation; cited from earlier work.
Data set [5] deals with subjects. As to conditions: 5 mg dose via pMDI; cited from earlier work.
Data set [6] is described as follows: Fine particle fraction by Fast Screening Impactor, Respimat device, 28.3 L/min. Type of data set: physicochemical. From the text:
An abbreviated impactor set-up, Copley Scientific's ‘Fast Screening Impactor’ (FSI), was used to determine the FPF within liquid aerosols (Mitchell et al. AAPS PharmSciTech. 2009;10(1):252-7). The FSI consisted of the universal induction port (UIP), course fraction collector (pre-separator and insert with a 5 μm diameter cut-off @ 28.3 L/min), and fine particle fraction collector consisting of a holder and glass fiber filter. The system was assembled along with a Copley LC5 pump. The flow rate was set by attaching a flow meter to the inlet of the induction port and adjusting the flow control valve on the LC5 vacuum pump until the flow rate through the system was 28.3 L/min +/−5%. Measurements were performed under ambient laboratory conditions (˜60% RH, 72° F.). The Respimat device was primed and attached to the UIP using a mouthpiece adapter. With the vacuum pump running, the device was actuated followed by a 30 second hold before turning off the vacuum pump. The Respimat device was re-primed and another dose was collected in the FSI. To determine the amount of cannabinoids deposited in each stage, the FSI was dismantled and each stage was extracted with 10 ml of methanol. Samples were diluted and HPLC performed to quantify the mass of cannabinoids deposited in the USP throat, coarse fraction collector, and fine particle fraction collector.

Data set [7] relates to Volunteers. The experiment in a line: User feedback on tolerability of Δ9-THC distillate in ethanol delivered via […]. Conditions: in 200 proof ethanol, RESPIMAT
Type of data set: in vivo, human. An excerpt: Volunteers reported that 200 proof ethanol (placebo) delivered using the […]® device as non-irritating. It was observed that the cannabinoid, Δ9-THC in the ethanol solution, induced irritation that was dose dependent as shown in Table 1 below:
The irritation was caused by cannabinoid deposition at mucosal membranes in the throat and upper airways. The lung deposition profile is affected by multiple factor including FPF as well as user inhalation technique. For example, it has been shown that the timing of inhalation and actuation as well as the posture of the user's head can have an impact on lung deposition. It is also important to note that in vitro impactor studies commonly underestimate dose deposition in the throat and overestimate the dose deposited in the lungs (Wei et al. (2018), Journal of Aerosol Medicine and Pulmonary Drug Delivery 31(0): 1-14).

Data set [8] has as its system healthy volunteers. As to conditions: doses greater than 2 mg, PARI nebulizer, eight healthy volunteers, all patients; cited from earlier work.
Data set [9] deals with asthmatic patients. As to conditions: metered dose inhaler, cited from earlier work.

Where two headings read alike, the source gives them in different places.

`C=C(C)[C@@H]1CCC(C)=C[C@H]1c1c(O)cc(CCCCC)cc1O` [CBD, Cannabidiol]: the “observation of 2% w/w solution” value in data set [1] (50% (w/w) saline solution) is on record as “precipitate”.
Regarding `CC12CCC(CC1)C(C)(C)O2` [Eucalyptol], the “Visual Observation” value in data set [2] (Target Concentration 0.06% w/w) was “Clear, colorless”; in [2] (Target Concentration 0.24% w/w), “Hazy, not fully”; in data set [2] (Target Concentration […] w/w), “Clear, colorless”.
On to `C=CC(C)(O)CCC=C(C)C` (stereo not shown) [Linalool], for which the “Visual Observation” value in data set [2] (Target Concentration 0.06% w/w) is listed as “Clear, colorless”; in data set [2] (Target Concentration 0.24% w/w), “Hazy, not fully”; in [2] (Target Concentration […] w/w), “Clear, colorless”.
`CC1=CCC(=C(C)C)CC1` [Terpinolene]: the “Visual Observation” value in data set [2] (Target Concentration 0.06% w/w) is listed as “Clear, colorless”; in [2] (Target Concentration 0.24% w/w) it was “Hazy, not fully”; in data set [2] (Target Concentration […] w/w) it was “Clear, colorless”.
Consider `O=C1NS(=O)(=O)c2ccccc21` [saccharin], for which the pKa in [3] was approximately 1.9.
As to `CCCCCc1cc(O)c2c(c1)OC(C)(C)C1CC=C(C)CC21` (stereo not shown) [Δ8-THC, delta-8-tetrahydrocannabinol], in data set [4], the cough reaction result is on record as “causing patients to cough”.
Turning to `CCCCCc1cc(O)c2c(c1)OC(C)(C)[C@@H]1CCC(C)=C[C@@H]21` [Δ9-THC, Delta-9-tetrahydrocannabinol], the “saline content of ethanol solution up to which 2% w/w is soluble” value in data set [1] (2% w/w, room temperature, 10-50% (w/w) saline in ethanol tested) is recorded as “up to 30 % (w/w) saline”. In data set [1] (40% and 50% (w/w) saline solutions), the “observation of 2% w/w solution” value is listed as “form a separate liquid phase (oiling out)”. In data set [1] (ethanol solutions containing 30%w/w saline, data not shown), the absolute solubility was approximately 8 %w/w. In data set [5], the “subjects with side effects including cough and/or chest discomfort” value is listed as 3 out of 11. In addition, the “% dose in FPF” value in data set [6] (dose 0.35 mg) turned out to be 76%; in data set [6] (dose 0.6 mg), 76%; in [6] (dose 1 mg) it was 77%; in data set [6] (dose 2 mg), 78%. Moreover, the User experience result in data set [7] (dose 0.35 mg) was “Most tolerable: Cough may occur, mild irritation of”; in [7] (dose 0.6 mg), “Harsh: Mild cough with mild throat/upper airway”; in data set [7] (dose 1 mg), “Harsh: Coughing with throat/upper airway irritation”; in data set [7] (dose 2 mg), “Extremely harsh: Coughing with throat/upper airway”. In addition, the “irritation reported after inhalation, compared to a placebo formulation” value in [8] was “significant irritation of the throat and upper respiratory tract”. Besides, the “tolerability of aerosol delivery to the lungs” value in [9] (0.2 mg) was “tolerable”; in data set [9] (doses higher than 0.2 mg), “irritating and induced coughing”.
Take `C=C1CC/C=C(\C)CC[C@@H]2[C@@H]1CC2(C)C` [β-caryophyllene]: the “Visual Observation” value in data set [2] (Target Concentration 0.06% w/w) is recorded as “Clear, colorless”; in [2] (Target Concentration 0.24% w/w), “Hazy, not fully”; in data set [2] (Target Concentration […] w/w), “Clear, colorless”.
With `C=CC(=C)CCC=C(C)C` [β-myrcene], the “solubility at the lowest percentage tested” value in data set [2] (0.06% w/w) is on record as “not soluble”. Moreover, the “Visual Observation” value in [2] (Target Concentration 0.06% w/w) is recorded as “Hazy, not fully”; in data set [2] (Target Concentration 0.24% w/w), “Hazy, not fully”; in [2] (Target Concentration […] w/w) it was “Hazy, not fully”.
